The text below walks through data of article PMC9027957, “Interspecies Comparisons of the Effects of Potential Antiviral 3-Amidinophenylalanine Derivatives on Cytochrome P450 1A2 Isoenzyme” (Veterinary Sciences, 2022).

The nature of data set [1]: 60 min microsomal stability assay (UPLC-MS/MS), cynomolgus monkey liver microsomes. It counts as in vitro ADME. The note with it: monkey microsomes, 50 µM, 0.6 mg/mL protein, mean ± SD (n = 3). How it is done:
(§1) Rat, beagle (Gibco, Biocenter, Szeged, Hungary), and cynomolgus monkey (Primacyt, Schwerin, Germany) liver microsomes were exposed to inhibitors MI-432, MI-463, MI-482, or MI-1900 at 50 µM for 60 min. The final microsomal protein concentration in the suspension was 0.6 mg/mL in each case. The reaction buffer (100 mM phosphate buffer pH 7.4) also contained 1 mM nicotinamide adenine dinucleotide phosphate (NADPH), 5 mM MgCl2, 10 mM glucose-6-phosphate (G6P), and 2 IU/mL glucose-6-phosphate dehydrogenase (G6PD). The reaction was terminated by the addition of ice-cold acetonitrile (ACN) with the ratio of sample ACN volume = 1:2. The precipitated protein was removed by centrifugation at 10,000× g for 10 min, and the supernatants were used for subsequent analyses.
(§2) The determination of all analytes was carried out using an UPLC/MS/MS system, which consisted of an HPLC apparatus (SCIEX ExionLC^TM UPLC, Framigham, MA, USA) and a SCIEX Qtrap 4500 triple-quadrupole mass spectrometer (Framigham, MA, USA) equipped with a SCIEX Turbo V electrospray ionization source. The HPLC columns used were LiChrospher RP Select B (125 × 4.0 mm, 5.0 μm, C8 stationary phase). Next, 0.1% trifluoroacetic acid in ultra-purified water (A) and acetonitrile (B) were used as mobile phases for chromatographic separations applying a gradient elution. The HPLC gradient program was the following: between 0 and 10 min, a ratio of 70% A and 30% B; from 10 to 20 min, linearly increasing to a ratio of 50% A and 50% B; from 20 to 21 min, maintained at a ratio of 50% A and 50% B; from 21 to 22 min, linearly decreasing back to a ratio of 70% A and 30% B; and between 22 min and 30 min, maintained at a ratio of 70% A and 30% B. The run time was 30 min, the column temperature was adjusted to 35 °C, and the flow rate was 1 mL/min.
For orientation: Liver microsomes are a subcellular fraction often used to study metabolism.

A short description of data set [2]: 60 min microsomal stability assay (UPLC-MS/MS), rat liver microsomes. The note with it: rat microsomes, 50 µM, 0.6 mg/mL protein, mean ± SD (n = 3). It counts as in vitro ADME. The procedure: as §1, §2
In data set [3] the target is T1, CYP1A2 (Rattus norvegicus, UniProt P04799).
T1 sequence (P04799 1-513): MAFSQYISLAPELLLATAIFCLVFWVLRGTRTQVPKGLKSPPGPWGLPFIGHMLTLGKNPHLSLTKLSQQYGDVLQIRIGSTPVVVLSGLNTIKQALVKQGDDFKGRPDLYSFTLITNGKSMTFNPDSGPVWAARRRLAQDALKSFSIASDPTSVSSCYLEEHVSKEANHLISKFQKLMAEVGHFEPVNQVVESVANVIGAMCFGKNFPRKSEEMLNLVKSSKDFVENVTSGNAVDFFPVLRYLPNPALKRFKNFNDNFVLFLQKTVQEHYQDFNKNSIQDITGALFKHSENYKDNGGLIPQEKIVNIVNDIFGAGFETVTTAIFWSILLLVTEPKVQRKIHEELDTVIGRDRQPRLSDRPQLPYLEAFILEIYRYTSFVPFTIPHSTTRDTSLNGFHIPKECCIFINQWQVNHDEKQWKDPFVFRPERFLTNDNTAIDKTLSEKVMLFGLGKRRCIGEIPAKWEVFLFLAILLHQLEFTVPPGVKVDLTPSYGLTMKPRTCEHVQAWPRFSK
The data set can be described thus: CYP1A2 fluorometric activity assay in rat hepatic microsomes. Further details: Rat (Sprague–Dawley) and beagle (Gibco, Biocenter, Szeged, Hungary, protein concentration: 20 mg/mL) hepatic microsomal preparations; tissue Gibco, Biocenter, Szeged, Hungary; host or cells: liver (hepatic microsomes), Sprague-Dawley rat. The data set is classed as in vitro ADME, rat (Sprague–Dawley). The following applies: 15 min at 37 °C. The procedure: (§3) The Biovision CYP assay (BioVision, Inc., Kampenhout, Belgium) utilizes a non-fluorescent CYP1A2 substrate capable of transforming into a highly fluorescent metabolite, which can be detected in the visible range. α-naphthoflavone was used as a CYP1A2 reference inhibitor at 6 µM during the experiments. Rat (Sprague–Dawley) and beagle (Gibco, Biocenter, Szeged, Hungary, protein concentration: 20 mg/mL) hepatic microsomal preparations were prepared separately by mixing 25 µL of the obtained rat or beagle microsomal suspension with 2425 µL assay buffer and with 50 µL NADPH generating system (100×). In the case of the cynomolgus monkey microsomal suspension (Primacyt, Schwerin, Germany, protein concentration: 5 mg/mL), the following volumes were applied: in addition to 100 µL of monkey microsomal suspension, the amount of assay buffer and the NADPH generating system were adjusted in order to ensure the original ratios of these components to reach a final volume of 2500 µL. Rat, beagle, and cynomolgus monkey microsomal suspension aliquots (50 µL) were treated with the protease inhibitor 20 µL, 0–1000 µM), the reference compound α-naphthoflavone (20 µL, 30 µM), or the assay buffer without test compounds (20 µL, background control) for 15 min at 37 °C. After incubation, 30 µL of the appropriate CYP1A2 substrate/NADP+ mixture was added to each well, yielding a final reaction volume of 100 µL/well. The protein contents of the obtained microsomes were analysed using bicinchoninic acid protein assay kit (Pierce BCA kit, Thermo Fisher Scientific, Waltham, MA, USA). […] The fluorescence intensities were measured with a fluorometer (Victor X2 2030, Perkin Elmer, Waltham, MA, USA), using λEx/Em = 406/468 nm.

Data set [4] is described as follows: 60 min microsomal stability assay (UPLC-MS/MS), beagle liver microsomes. The data set is classed as in vitro ADME. The note with it: beagle microsomes, 50 µM, 0.6 mg/mL protein, mean ± SD (n = 3). The procedure: as §1, §2
For data set [5], the target named is T2, CYP1A2 (Macaca fascicularis, UniProt O77809).
T2 sequence (O77809 1-516): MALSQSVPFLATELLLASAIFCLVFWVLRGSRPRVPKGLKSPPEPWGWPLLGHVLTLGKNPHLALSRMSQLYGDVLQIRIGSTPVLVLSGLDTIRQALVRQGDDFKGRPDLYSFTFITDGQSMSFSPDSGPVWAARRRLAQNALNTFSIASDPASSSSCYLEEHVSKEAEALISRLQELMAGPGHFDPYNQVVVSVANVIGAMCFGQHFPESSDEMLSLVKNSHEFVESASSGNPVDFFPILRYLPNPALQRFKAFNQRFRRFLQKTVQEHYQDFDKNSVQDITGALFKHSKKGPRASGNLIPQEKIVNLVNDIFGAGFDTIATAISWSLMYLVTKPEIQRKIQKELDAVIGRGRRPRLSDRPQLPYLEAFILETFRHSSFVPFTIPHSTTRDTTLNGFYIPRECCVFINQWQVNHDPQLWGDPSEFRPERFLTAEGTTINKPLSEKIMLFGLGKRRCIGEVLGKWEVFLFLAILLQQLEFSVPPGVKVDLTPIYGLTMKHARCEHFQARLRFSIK
The data set can be described thus: CYP1A2 fluorometric activity assay in cynomolgus monkey hepatic microsomes. The data set is classed as in vitro ADME. Set-up: cynomolgus monkey microsomal suspension (Primacyt, Schwerin, Germany, protein concentration: 5 mg/mL); tissue Primacyt, Schwerin, Germany; host or cells: liver (hepatic microsomes). The note with it: for CYP1A2 in the cynomolgus monkey microsomal model: inhibitors at 50 µM. The procedure: as §3

Data set [6] addresses T3, CYP1A2 (Canis lupus familiaris, UniProt P56592).
T3 construct: endogenous in cells; host or cells: beagle hepatocytes
T3 sequence (P56592 1-512): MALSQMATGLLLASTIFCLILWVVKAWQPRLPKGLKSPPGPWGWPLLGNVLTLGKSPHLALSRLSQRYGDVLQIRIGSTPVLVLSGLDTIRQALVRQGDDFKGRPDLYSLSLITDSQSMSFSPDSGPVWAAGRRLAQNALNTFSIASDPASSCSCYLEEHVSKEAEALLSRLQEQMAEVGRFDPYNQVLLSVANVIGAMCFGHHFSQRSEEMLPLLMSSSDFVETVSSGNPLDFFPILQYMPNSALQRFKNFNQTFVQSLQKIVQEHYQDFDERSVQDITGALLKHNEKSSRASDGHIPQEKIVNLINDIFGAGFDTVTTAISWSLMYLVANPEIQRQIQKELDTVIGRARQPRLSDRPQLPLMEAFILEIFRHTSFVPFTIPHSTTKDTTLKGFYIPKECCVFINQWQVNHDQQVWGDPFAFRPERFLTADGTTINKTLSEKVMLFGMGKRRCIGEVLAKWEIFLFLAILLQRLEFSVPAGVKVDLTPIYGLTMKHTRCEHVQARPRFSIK
Put plainly: CYP1A2 fluorometric activity assay in beagle hepatic microsomes. The note with it: 15 min at 37 °C. It counts as in vitro ADME. How it is done: as §3

Data set [7] concerns the target T2, CYP1A2. The note with it: 10 µM.
Procedure: (§4) For the measurements of CYP1A2 activities, hepatocytes were grown on 24-well collagen-coated membrane inserts (Costar Transwell-PTFE membrane, 6.5 mm, pore size: 0.4 µm, Merck, Darmstadt, Germany). […] The determination of the CYP1A2 activities were performed using the P450-Glo CYP450 Assay (Promega, Madison, WI, USA) according to the manufacturer’s instructions.
Data set [8] addresses T3, CYP1A2. It counts as cell-based. The note with it: dog, 10 µM.
Procedure: as §4
For data set [9], the target named is T1, CYP1A2. Put plainly: CYP1A2 luminescent (P450-Glo) activity assay in rat hepatocytes. The data set is classed as cell-based. Set-up: endogenous in cells; host or cells: rat hepatocytes. The following applies: positive control at 10 µM.
Procedure: as §4
Where [10] appears, read: inhibitors at 50 µM, vs untreated control.

`COc1ccc(-c2cccc(S(=O)(=O)N[C@@H](Cc3cccc(C(=N)N)c3)C(=O)N3CCC(NC(=O)NC4CCCCC4)CC3)c2)c(OC)c1` [MI-463]: the “depletion percentage of the parent compound” value in [1] is reported as 17.7 ± 4.6%; in data set [2], 15.1 ± 6.5%; in [4], 15.7 ± 8%. In addition, the “rat hepatic microsomal CYP1A2 isoenzyme activity” value in data set [3] (setting [10]) is recorded as “suppressed”. Moreover, the IC50 in data set [5] was 2400 ± 1400 nM. Further, in data set [5], the “CYP1A2 in the cynomolgus monkey microsomal model” value was “inhibited”.
`N=C(N)c1cccc(C[C@H](NS(=O)(=O)c2cccc(-c3cc(CO)ccc3Cl)c2)C(=O)N2CCC(CCNC(=O)NC3CCCCC3)CC2)c1` [MI-482]: the “depletion percentage of the parent compound” value in data set [1] is listed as 15.1 ± 7.3%; in [2], 31.4 ± 1.1%; in [4], 39.3 ± 6%. Moreover, the “rat hepatic microsomal CYP1A2 isoenzyme activity” value in data set [3] (setting [10]) is listed as “did not inhibit CYP1A2 function”. Moreover, the IC50 in data set [5] was determined as 210 ± 90 nM. Also, in [5], the “CYP1A2 in the cynomolgus monkey microsomal model” value is on record as “inhibited”. Also, in data set [6] (setting [10]), the “beagle hepatic microsomal CYP1A2 isoenzyme activity” value is given as “reduced the activity of CYP1A2”.
For `O=c1cc(-c2ccccc2)oc2c1ccc1ccccc12` [α-naphthoflavone, reference compound], in [7], the “CYP1A2 activity in cynomolgus monkey hepatocytes” value is reported as “significantly suppress CYP1A2 activities”. Also, the “CYP1A2 activity in beagle hepatocytes” value in data set [8] is recorded as “significantly suppress CYP1A2 activities”. Also, the “rat hepatic microsomal CYP1A2 isoenzyme activity” value in [3] (reference inhibitor at 6 µM) is “significantly suppressed CYP1A2 activities”. Also, the “CYP1A2 activity in rat hepatocytes” value in data set [9] is reported as “significantly suppress CYP1A2 activities”. The “beagle hepatic microsomal CYP1A2 isoenzyme activity” value in data set [6] (reference inhibitor at 6 µM) is listed as “significantly suppressed CYP1A2 activities”.

As a reminder, the IC50 is the point on the concentration scale where inhibition reaches its midpoint.
